Patent US9381193B2, “Contraceptive methods and compositions” (WASHINGTON UNIVERSITY, priority 2011, dated 2016)

Columns and labels:
FVB/NJ mice [1] = test: Serum hormone concentration in DHEA-fed mice (ELISA); format: in vivo, mouse
Description: (§1) Female FVB/NJ mice were obtained from Jackson Laboratories (Bar Harbor, Me., USA). Regular rodent chow was supplemented with DHEA at 0.01%, 0.1% and 0.6% w/w. Three-week-old mice had access to food and water ad libitum. Mice were fed control or DHEA-supplemented chow for two weeks. The Animal Studies Committee at Washington University School of Medicine reviewed and approved all animal experiments. Animals were maintained according to the Guide for the Care and Use of Laboratory Animals provided by the Institute for Laboratory Animal Research.
Control and DHEA-fed mice were superovulated with 10 IU pregnant mare serum gonadotropin (PMSG) by i.p. injection. DHEA, estradiol and testosterone serum concentrations were measured 48 hours later. For progesterone concentrations, mice were given an i.p. injection of 10 IU hCG 48 hours after PMSG and blood was collected 24 hours later. Mice were anesthetized with 50 μl ketamine and xylazine (1:1) and blood was collected by cardiac puncture. Serum was separated by centrifugation and stored at −20° C. ELISA assays were used to determine serum hormone concentrations (Alpco, Salem, N.H., USA).

G6PDH = target: T1, G6PDH (Mus musculus, UniProt Q00612); test: G6PDH enzyme activity in single oocytes of DHEA-fed mice; format: in vivo
T1 construct: Individual oocytes or blastocysts were extracted in nanoliter volume under oil; from tissue; host or cells: denuded germinal vesicle oocytes of mice
T1 sequence (Q00612 whole entry): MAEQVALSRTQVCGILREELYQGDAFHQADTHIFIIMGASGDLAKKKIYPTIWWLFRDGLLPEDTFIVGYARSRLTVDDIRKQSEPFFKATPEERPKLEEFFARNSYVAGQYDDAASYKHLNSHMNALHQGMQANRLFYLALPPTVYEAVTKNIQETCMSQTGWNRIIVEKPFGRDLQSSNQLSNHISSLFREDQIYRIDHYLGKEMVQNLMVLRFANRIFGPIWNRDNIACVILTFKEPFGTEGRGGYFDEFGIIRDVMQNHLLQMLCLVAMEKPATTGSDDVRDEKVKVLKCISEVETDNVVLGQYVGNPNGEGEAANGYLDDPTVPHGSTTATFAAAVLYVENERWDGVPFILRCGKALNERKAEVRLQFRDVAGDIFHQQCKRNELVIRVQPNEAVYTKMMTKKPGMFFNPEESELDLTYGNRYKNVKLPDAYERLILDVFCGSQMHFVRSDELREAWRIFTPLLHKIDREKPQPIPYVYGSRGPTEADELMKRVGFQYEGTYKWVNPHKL
Description: (§2) COCs were collected following superovulation with PMSG. Ovaries were removed and placed in M2 media (Sigma, St. Louis, Mo., USA). COCs were obtained by rupture of antral follicles with a syringe and needle. To collect denuded germinal vesicle (GV) oocytes, the cumulus cells were removed by gentle pipetting. The oviducts were removed from PMSG- and hCG-primed mice. The ampulla of the oviduct was punctured to release the clutch of ovulated oocytes 24 hr after hCG.
(§3) Denuded oocytes or cultured blastocysts were frozen on a glass slide with liquid nitrogen and dried overnight at −35° C. under vacuum. Individual oocytes or blastocysts were extracted in nanoliter volume under oil. Assays were designed to measure ATP, citrate and G6PDH by linking with NAD/NADH or NADP/NADPH which are enzymatically amplified in a cycling reaction allowing products to be measured by fluorometry.

embryos = test: Transfer of blastocysts cultured in DHEA to pseudopregnant females; format: in vivo, mouse
Description: (§4) Mice were superovulated and mated with males of known fertility. Forty-five hours after injection with hCG, the oviducts were removed. Two-cell embryos were collected by flushing the oviducts with human tubal fluid media (HTF) with 0.25% BSA. Embryos were cultured in HTF with BSA and either DMSO, 10 μM DHEA or 100 μM DHEA for 72 hours. In vitro cultured blastocysts were transferred to 2.5 days postcoitus (dpc) pseudopregnant ICR females. Resulting embryos and placentas were collected at 14.5 dpc and fixed with Bouin's solution, embedded in paraffin and sectioned.

blastocysts = test: ATP and citrate levels in blastocysts cultured from two-cell embryos with DHEA; format: cell-based, mouse
Description: as §4, §3

oocytes from rats = conditions: DHEA 1 mg/100 g or 10 mg/100 g body weight, increased with dose and treatment duration; cited from earlier work
FVB/NJ mice [2] = test: Ovulation rate after PMSG and hCG in DHEA-fed mice; format: in vivo, mouse
Description: as §1, §2

ESC-T cells = test: In vitro decidualization of immortalized human ESC-T cells (decidualization marker mRNA, morphology); format: cell-based; design: Lowering of PRL and IGFBP1 mRNA expression vs differentiation media only / Morphological change during decidualization: dose or concentration left out as unconfirmed
Description: Decidualization in human cells was monitored by measuring the mRNA expression of two decidualization markers, PRL and IGFBP1.
This NADP+ analog inhibits two enzymes in the PPP, G6PD and 6GPDH, which utilize NADP+ and convert it into NADPH.
Two major results of the PPP are the production of ribose 5-phosphate and regeneration of NADPH. Production of ribose 5-phosphate is a central component in the de novo synthesis of ribonucleosides (RNs) and deoxyribonucleosides (DRNs). […] To address this question, ESC-T cultures were used and the differentiation media was supplemented with RNs and DRNs during treatment with PPP inhibitors.
Endometrial tissue was obtained from human uteri after hysterectomy conducted for benign disease or from endometrial biopsies. Informed consent was obtained from each patient before surgery and protocols were approved by the Human Research Protection Office of Washington University (HRPO#07-0949). Tissues were placed in HBSS and transported to the laboratory. hESCs were isolated and cultured as previously described. In vitro decidualization was performed as previously described with several changes. Cells were seeded in 6-well plates at 2×10^5 cells/well in DMEM:F12 without phenol red, supplemented with 2% heat-inactivated charcoal dextran-stripped calf serum (HyClone) and 50 μg/ml penicillin/streptomycin (Cambrex Bio Science). Cells were treated with 1 μM medroxyprogesterone-17-acetate (MPA) (Sigma) and 0.5 mM N^6, 2′-O-Dibutyryladenosine 3′,5′-cyclic monophosphate sodium salt (db-cAMP) (Sigma). Control samples received 0.1% ethanol vehicle control.
Human immortalized ESC (ESC telomerase immortalized, ESC-T), were decidualized in vitro in the presence of 0, 2.5 or 5 mM GlcN for 9 days.

C[C@]12CC[C@H](O)CC1=CC[C@@H]1[C@@H]2CC[C@]2(C)C(=O)CC[C@@H]12 [DHEA, dehydroepiandrosterone]
Increase in DHEA serum levels (FVB/NJ mice [1]; 0.01% DHEA supplementation): 1.9 fold | Serum DHEA (FVB/NJ mice [1]; DHEA diets 0.01%, 0.1%, 0.6%, 48 hours after PMSG): elevated in the DHEA-fed mice in a dose-dependent fashion | G6PDH activity (G6PDH; 0.01% DHEA and 0.1% DHEA groups): decreased | G6PDH activity, of normal (G6PDH; 0.1% DHEA diet): 87% | Anomalies in the fetuses or abnormal placental histology (embryos): did not lead to increased anomalies | Fetus size at 14.5 dpc (embryos): significantly smaller fetuses | Placenta size at 14.5 dpc (embryos; p=0.054): smaller placentas | Citrate levels of control (blastocysts; 10 μM DHEA): 86% | Citrate levels of control (blastocysts; 100 μM DHEA): 68% | Percentage of degenerated oocytes (oocytes from rats): ≤ 70% | Number of ovulated oocytes (FVB/NJ mice [2]; 0.01% DHEA diet): 10.8±2.8 | Number of ovulated oocytes (FVB/NJ mice [2]; 0.1% DHEA diet): 15±1.9 | Number of ovulated oocytes (FVB/NJ mice [2]; 0.6% DHEA diet): 7.1±1.4 | PRL and IGFBP1 decidualization markers (ESC-T cells; 100 μM DHEA, day 4): drastic decrease | Morphological change during decidualization (ESC-T cells; DHEA): the morphological progression is halted | Lowering of PRL and IGFBP1 mRNA expression vs differentiation media only (ESC-T cells; DHEA, day 3 of in vitro culture): 5 fold
